In one assay the test system is HT-1080. As to the kind of experiment: Antiproliferative activity against human HT1080 cells after 4 days by MTT assay. Type of assay: functional. The following applies: HT-1080, 96 h, read-out: ED50 (the source's name).
A short description of assay [1]: Antiproliferative activity against mouse Colon 26-L5 cells after 4 days by MTT assay. In kind it is functional. The following applies: 96 h, read-out: ED50 (the source's name).

Values after ≈ are worked out from the molar mass of the structure shown.

On to `O=c1[nH]cc(F)c(=O)[nH]1` [FLUOROURACIL], for which the EC50 worked out at 0.48 µg/mL (≈ 3.69 µM) in the assay with HT-1080 and 0.015 µg/mL (≈ 0.115 µM) in assay [1].
Regarding `C=C[C@@]1(C)C[C@@H](OC(=O)c2ccccc2)[C@H]2[C@](O)(C1=O)[C@H](OC(C)=O)C[C@H]1C(C)(C)[C@H](OC(C)=O)[C@H](O)[C@H](OC(=O)c3ccccc3)[C@@]12C` [ORTHOSIPHOL B], the EC50 with HT-1080 came out at 57.9 µg/mL (≈ 85.6 µM); in assay [1] it was 28.1 µg/mL (≈ 41.5 µM).
Turning to `C=C[C@@]1(C)CC(=O)[C@H]2[C@](O)(C1=O)[C@H](OC(C)=O)C[C@H]1C(C)(C)[C@H](O)[C@H](OC(C)=O)[C@H](OC(=O)c3ccccc3)[C@@]12C` [ORTHOSIPHOL M], the results for the EC50 (in the assay with HT-1080; in assay [1]) were 81.7 µg/mL (≈ 143 µM) and 31.3 µg/mL (≈ 54.9 µM), respectively.
Consider `COc1cc(/C=C/C(=O)OCCc2ccc(O)cc2)ccc1O`, for which the EC50 in the assay with HT-1080 was 47.1 µg/mL (≈ 150 µM); in assay [1] it was 33.7 µg/mL (≈ 107 µM).
For the molecule `C=C[C@@]1(C)C[C@@H](OC(=O)c2ccccc2)[C@H]2[C@](O)(C1=O)[C@H](OC(C)=O)C[C@H]1C(C)(C)[C@H](O)[C@H](O)[C@H](OC(=O)c3ccccc3)[C@@]12C` [ORTHOSIPHOL K], the EC50 with HT-1080 is 21.8 µg/mL (≈ 34.3 µM); in assay [1], 13.8 µg/mL (≈ 21.7 µM).
As to `COc1ccc(-c2cc(=O)c3c(O)c(OC)c(OC)cc3o2)cc1O` [EUPATORIN], the EC50 in the assay with HT-1080 turned out to be 8.8 µg/mL (≈ 25.6 µM); in assay [1], 3.7 µg/mL (≈ 10.7 µM).
Take `COc1ccc(-c2cc(=O)c3c(OC)c(OC)c(OC)cc3o2)cc1`: the EC50 worked out at 4.5 µg/mL (≈ 13.1 µM) with HT-1080 and 8.1 µg/mL (≈ 23.7 µM) in assay [1].
Consider `C=C[C@@]1(C)CC(=O)[C@H]2[C@](O)(C1=O)[C@H](O)C[C@H]1C(C)(C)[C@H](OC(=O)c3ccccc3)[C@H](OC(C)=O)[C@H](OC(=O)c3ccccc3)[C@@]12C` [ORTHOSIPHOL N], for which the EC50 turned out to be 18.6 µg/mL (≈ 29.4 µM) in the assay on HT-1080 and 35.1 µg/mL (≈ 55.5 µM) in assay [1].
The corresponding values for `COc1ccc(-c2cc(=O)c3c(O)c(O)c(OC)cc3o2)cc1` [LADANEIN] are 3 µg/mL (≈ 9.55 µM) and 2.3 µg/mL (≈ 7.32 µM).
On to `C=C/C(=C\[C@H]1C(=O)[C@H](OC(C)=O)C[C@H]2C(C)(C)[C@H](O)[C@H](OC(C)=O)[C@H](OC(=O)c3ccccc3)[C@]12C)C(C)=O` [NORSTAMINONE A], for which the EC50 in the assay on HT-1080 came to 23.2 µg/mL (≈ 42.9 µM); in assay [1], 12.8 µg/mL (≈ 23.7 µM).
For the molecule `COc1ccc(-c2cc(=O)c3cc(OC)c(OC)c(OC)c3o2)cc1OC`, the EC50 in the assay on HT-1080 was 74.8 µg/mL (≈ 201 µM); in assay [1] it was 31.4 µg/mL (≈ 84.3 µM).
In the case of `C=C[C@@]1(C)C[C@@H](OC(=O)c2ccccc2)[C@H]2[C@](O)(C1=O)[C@H](OC(C)=O)C[C@H]1C(C)(C)[C@H](O)[C@H](OC(C)=O)[C@H](OC(=O)c3ccccc3)[C@@]12C` [ORTHOSIPHOL A], the EC50 was over 100 µg/mL in the assay on HT-1080 and 63.1 µg/mL (≈ 93.2 µM) in assay [1].
Regarding `C=C[C@H]1[C@@H](OC(=O)c2ccccc2)[C@H]2[C@](O)(C(=O)[C@@]1(C)O)[C@H](OC(C)=O)C[C@H]1C(C)(C)[C@H](O)[C@H](OC(C)=O)[C@H](OC(=O)c3ccccc3)[C@@]12C` [NEOORTHOSIPHOL A], the EC50 is 96.3 µg/mL (≈ 139 µM) with HT-1080 and 38.8 µg/mL (≈ 56 µM) in assay [1].
Turning to `C=C[C@]1(C)C(=O)[C@]2(O)[C@H](OC(C)=O)C[C@H]3C(C)(C)[C@H](O)[C@H](OC(C)=O)[C@H](OC(=O)c4ccccc4)[C@]3(C)[C@H]2[C@H](OC(=O)c2ccccc2)[C@@H]1O` [ORTHOSIPHOL L], the EC50 stood at 20.6 µg/mL (≈ 29.7 µM) in the assay with HT-1080 and 24.7 µg/mL (≈ 35.7 µM) in assay [1].
